# Source: article PMC11645656, “MRGPRX4 mediates phospho-drug associated pruritus in a humanized mouse model” (Science translational medicine, 2024)
# Where “and” joins values, the source holds several entries; their conditions need not be identical. Equal values may be shown once.
# What was measured:
# [1] = molecular target: T1, MRGPRX4 (S83) (Homo sapiens, UniProt Q96LA9, L83S); assay: EC50 determination, intracellular calcium mobilization in MRGPRX4 stably expressed HEK293 cells (FLIPR Calcium 5, Flexstation-3); type: cell-based; parameters: Fig. 1D dose-response, calcium mobilization response (individual replicate) / calcium mobilization response (Fig. 1D dose-response raw data): unit not given here; details: individual replicate values, listed as Phenytoin Sodium; for Fig. 1D dose-response, calcium response at Concentration (M): phenytoin series
# T1 construct: expressed in transfected cells
# T1 sequence (Q96LA9 whole entry L83S): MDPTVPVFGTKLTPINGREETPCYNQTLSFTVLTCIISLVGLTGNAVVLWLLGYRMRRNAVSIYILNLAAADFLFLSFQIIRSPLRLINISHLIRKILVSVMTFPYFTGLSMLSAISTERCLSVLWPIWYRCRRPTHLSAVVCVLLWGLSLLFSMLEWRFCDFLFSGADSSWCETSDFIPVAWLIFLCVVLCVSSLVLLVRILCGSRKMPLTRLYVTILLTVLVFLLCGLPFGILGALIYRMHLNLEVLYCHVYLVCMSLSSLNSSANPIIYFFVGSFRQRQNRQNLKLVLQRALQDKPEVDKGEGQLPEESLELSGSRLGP
# Summary of the method: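 HEK293 cells stably expressing receptor (parental HEK293 alongside) loaded with Calcium 5 dye in HBSS/20 mM HEPES, pH 7.4, 1 h at 37 °C, then compounds added. Response = peak minus pre-drug baseline, triplicates averaged; EC50 from 4PL fit.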
# [2] = molecular target: MRGPRX4 WT (S83) (Homo sapiens, UniProt Q96LA9, L83S); assay: PRESTO-Tango β-arrestin recruitment assay, HTLA cells stably expressing WT (S83) MRGPRX4; type: cell-based; parameters: expressed in transfected cells; details: HTLA::MRGPRX4
# Chain of MRGPRX4 WT (S83) (Q96LA9 whole entry L83S): as above
# [3] = test system: NP2-WT mice; assay: Itch behavioral study (scratching bouts after subcutaneous nape injection) in littermate control NP2-WT mice; type: in vivo; details: 30 min after injection of 50 μl 10 mM into the nape, each cell one mouse
# [4] = IV, clinical trials; ref New Drug Application: 020450; cited from earlier work
smiles,measurement,setting,value
O=C1NC(=O)C(c2ccccc2)(c2ccccc2)N1 [Phenytoin],"Fig. 1D dose-response, calcium response at Concentration (M)",[1]; 4.88281e-7 M,-45.834 and -46.962 and -43.233
same,"Fig. 1D dose-response, calcium response at Concentration (M)",[1]; 9.76563e-7 M,-42.023 and -51.874 and -41.78
same,"Fig. 1D dose-response, calcium response at Concentration (M)",[1]; 1.95313e-6 M,-57.631 and -43.259 and -52.591
same,"Fig. 1D dose-response, calcium response at Concentration (M)",[1]; 3.90625e-6 M,-30.902 and -51.949 and -54.701
same,"Fig. 1D dose-response, calcium response at Concentration (M)",[1]; 7.8125e-6 M,-36.341 and -24.025 and -23.478
same,"Fig. 1D dose-response, calcium response at Concentration (M)",[1]; 1.5625e-5 M,-24.49 and -31.993 and -24.486
same,"Fig. 1D dose-response, calcium response at Concentration (M)",[1]; 3.125e-5 M,-42.34 and -14.448 and -21.073
same,"Fig. 1D dose-response, calcium response at Concentration (M)",[1]; 6.25e-5 M,-29.178 and -38.728 and -12.364
same,"Fig. 1D dose-response, calcium response at Concentration (M)",[1]; 0.00025 M,21.7467 and 26.6867 and 14.9677
same,"Fig. 1D dose-response, calcium response at Concentration (M)",[1]; 0.0005 M,-0.1003 and 34.5457 and 1.141
same,calcium mobilization response (Fig. 1D dose-response raw data),[1]; concentration 4.88281e-7 M,-35.967 and -38.387 and -9.249 and -43.815 and -12.548 and -27.242
same,calcium mobilization response (Fig. 1D dose-response raw data),[1]; concentration 9.76563e-7 M,-3.6717 and 0.5703 and -1.3847 and -25.061 and -39.258 and -5.762
same,calcium mobilization response (Fig. 1D dose-response raw data),[1]; concentration 1.95313e-6 M,-0.8477 and -0.3367 and -2.8407 and -17.925 and -29.096 and -31.733
same,calcium mobilization response (Fig. 1D dose-response raw data),[1]; concentration 3.90625e-6 M,-4.2817 and -4.6827 and 7.036 and -45.513 and -21.585 and -2.642
same,calcium mobilization response (Fig. 1D dose-response raw data),[1]; concentration 7.8125e-6 M,-6.1147 and -5.4597 and 3.666 and -0.809 and -24.700 and -20.368
same,calcium mobilization response (Fig. 1D dose-response raw data),[1]; concentration 1.5625e-5 M,-2.1987 and 5.167 and -0.3347 and -19.624 and -8.530 and -11.014
same,calcium mobilization response (Fig. 1D dose-response raw data),[1]; concentration 3.125e-5 M,-5.0347 and -1.5897 and 2.935 and -19.576 and -12.591 and -8.608
same,calcium mobilization response (Fig. 1D dose-response raw data),[1]; concentration 6.25e-5 M,13.7733 and 12.6223 and 5.79 and -9.327 and -10.716 and -3.999
same,calcium mobilization response (Fig. 1D dose-response raw data),[1]; concentration 0.00025 M,17.3763 and 20.0503 and 26.8243 and 17.981 and 21.189 and 24.656
same,calcium mobilization response (Fig. 1D dose-response raw data),[1]; concentration 0.0005 M,40.1453 and 34.4913 and 26.1333 and 33.840 and 5.994 and 28.344
same,"PRESTO-Tango response (fig. S1), single replicate",[2]; concentration 4.88281e-6 M,0.1853 and 0.188 and 0.1763 and 0.05734 and 0.2683 and 0.2239
same,"PRESTO-Tango response (fig. S1), single replicate",[2]; concentration 9.76563e-6 M,0.2008 and 0.1594 and 0.1746 and 0.2158 and 0.02233 and 0.2967
same,"PRESTO-Tango response (fig. S1), single replicate",[2]; concentration 1.95313e-5 M,0.2906 and 0.2732 and 0.1192 and 0.006784 and 0.3171 and 0.3592
same,"PRESTO-Tango response (fig. S1), single replicate",[2]; concentration 3.90625e-5 M,0.1519 and 0.183 and 0.2178 and 0.1316 and 0.1884 and 0.2326
same,"PRESTO-Tango response (fig. S1), single replicate",[2]; concentration 7.8125e-5 M,0.1378 and 0.1891 and 0.1982 and 0.232 and 0.1107 and 0.1825
same,"PRESTO-Tango response (fig. S1), single replicate",[2]; concentration 0.0003125 M,0.1547 and 0.2414 and 0.1479 and 0.03891 and 0.4024 and 0.1026
same,"PRESTO-Tango response (fig. S1), single replicate",[2]; concentration 0.000625 M,0.1541 and 0.14 and 0.1288 and 0.1405 and 0.1553 and 0.127
same,"PRESTO-Tango response (fig. S1), single replicate",[2]; concentration 0.0025 M,0.1159 and 0.09904 and 0.1083 and 0.002223 and 0.1612 and 0.1598
same,"PRESTO-Tango response (fig. S1), single replicate",[2]; concentration 0.005 M,0.112 and 0.09938 and 0.09678 and 0.03875 and 0.1733 and 0.09617
same,Scratching bouts of individual animals,[3],7 (2×) and 14 and 1 and 11 and 59 and 2 and 5 and 42 and 24
same,Patients who reported itch,[4],4.5%
